Source: PubChem BioAssay AID330 (DTP/NCI, 2004)
Several values for one entry are separate records, joined by “and”; a condition that tells them apart may be missing. Identical values can stand only once. Toxic doses and inconclusive results are not listed. How the source made its calls: active means survival T/C of 150% or more; inactive means T/C below 125% in these data.

System: P388 leukemia ip, CD2F1 mice, survival T/C
Experiment: NCI In Vivo Anticancer Drug Screen. Data for tumor model P388 Leukemia (intraperitoneal) in CD2F1 (CDF1) mice
Conditions: endpoint: median survival time, higher = longer survival
How it was run: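 Mice carrying the transplanted tumor received test compound or vehicle. Survival was recorded in each group, and the value is the treated-group measurement divided by that of the vehicle-treated control group.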

Measured: T/C

N#CC(C#N)(c1ccccc1)N1CCOCC1
inactive: dose: 25.0 mg/kg/injection, schedule: Q04DX003 (ip), vehicle: saline 109 % of control | dose: 50.0 mg/kg/injection, schedule: Q04DX003 (ip), vehicle: saline 100 % of control | dose: 100.0 mg/kg/injection, schedule: Q04DX003 (ip), vehicle: saline with Tween-80 100 % of control | dose: 100.0 mg/kg/injection, schedule: Q04DX003 (ip), vehicle: saline 104 % of control | dose: 200.0 mg/kg/injection, schedule: Q04DX003 (ip), vehicle: saline with Tween-80 96 % of control

CCOC(=O)N1C=CC(C2C=CN(C(=O)OCC)C=C2)C=C1
inactive: dose: 10.0 mg/kg/injection, schedule: Q01DX009 (ip), vehicle: saline with Tween-80 111 % of control | dose: 20.0 mg/kg/injection, schedule: Q01DX009 (ip), vehicle: saline with Tween-80 96 % of control | dose: 40.0 mg/kg/injection, schedule: Q01DX009 (ip), vehicle: saline with Tween-80 105 % of control

NC(=O)c1ccccc1N1CCCCC1
inactive: dose: 50.0 mg/kg/injection, schedule: Q01DX005 (ip), vehicle: saline with Tween-80 99 % of control | dose: 100.0 mg/kg/injection, schedule: Q01DX005 (ip), vehicle: saline with Tween-80 100 % of control | dose: 200.0 mg/kg/injection, schedule: Q01DX005 (ip), vehicle: saline with Tween-80 91 % of control

O=C(NP(=O)(N1CC1)N1CC1)c1cc(I)ccc1I
active: dose: 16.0 mg/kg/injection, schedule: Q01DX005 (ip), vehicle: suspension in saline 165 % of control | dose: 32.0 mg/kg/injection, schedule: Q01DX005 (ip), vehicle: suspension in saline 190 % of control | dose: 64.0 mg/kg/injection, schedule: Q01DX005 (ip), vehicle: suspension in saline 192 % of control
inactive: dose: 4.0 mg/kg/injection, schedule: Q01DX005 (ip), vehicle: suspension in saline 122 % of control | dose: 4.0 mg/kg/injection, schedule: Q01DX005 (iv), vehicle: suspension in saline 107 % of control | dose: 8.0 mg/kg/injection, schedule: Q01DX005 (iv), vehicle: suspension in saline 112 % of control | dose: 16.0 mg/kg/injection, schedule: Q01DX005 (iv), vehicle: suspension in saline 122 % of control

CCN(CC)CCOC(=O)/C=C/c1ccccc1
inactive: dose: 60.0 mg/kg/injection, schedule: Q01DX005 (ip), vehicle: saline 106 % of control | dose: 120.0 mg/kg/injection, schedule: Q01DX005 (ip), vehicle: saline 107 % of control | dose: 240.0 mg/kg/injection, schedule: Q01DX005 (ip), vehicle: saline 102 % of control

CCOc1nc(=O)[nH]c2c1CCCC2
inactive: dose: 60.0 mg/kg/injection, schedule: Q01DX005 (ip), vehicle: Klucel (hydroxypropylcellulose) (HPC) 98 % of control | dose: 120.0 mg/kg/injection, schedule: Q01DX005 (ip), vehicle: Klucel (hydroxypropylcellulose) (HPC) 98 % of control

Nc1ccc(Br)cc1N
inactive: dose: 50.0 mg/kg/injection, schedule: Q01DX009 (ip), vehicle: distilled water + Tween-80 + alcohol 111 % of control | dose: 50.0 mg/kg/injection, schedule: Q01DX009 (ip), vehicle: other 100 % of control | dose: 50.0 mg/kg/injection, schedule: Q01DX009 (ip), vehicle: saline + Tween-80 + alcohol 95 % of control | dose: 100.0 mg/kg/injection, schedule: Q01DX009 (ip), vehicle: distilled water + Tween-80 + alcohol 120 % of control | dose: 100.0 mg/kg/injection, schedule: Q01DX009 (ip), vehicle: other 98 % of control | dose: 100.0 mg/kg/injection, schedule: Q01DX009 (ip), vehicle: saline + Tween-80 + alcohol 107 % of control | dose: 200.0 mg/kg/injection, schedule: Q01DX009 (ip), vehicle: other 106 % of control | dose: 200.0 mg/kg/injection, schedule: Q01DX009 (ip), vehicle: saline + Tween-80 + alcohol 99 % of control
active: dose: 200.0 mg/kg/injection, schedule: Q01DX009 (ip), vehicle: distilled water + Tween-80 + alcohol 150 % of control

NP(=O)(OCCC(=O)c1ccccc1)N(CCCl)CCCl (centres undefined)
221 % of control and 92 % of control: dose: 100.0 mg/kg/injection, schedule: Q04DX002 (ip), vehicle: saline with Tween-80
inactive: dose: 200.0 mg/kg/injection, schedule: Q04DX002 (ip), vehicle: saline with Tween-80 89 % of control
active: dose: 25.0 mg/kg/injection, schedule: Q04DX002 (ip), vehicle: saline with Tween-80 163 % of control | dose: 50.0 mg/kg/injection, schedule: Q04DX002 (ip), vehicle: saline with Tween-80 223 % of control

CC1OCC(Br)([N+](=O)[O-])CO1 (centres undefined)
inactive: dose: 3.12 mg/kg/injection, schedule: Q01DX009 (ip), vehicle: saline with Tween-80 104 % of control and 110 % of control | dose: 6.25 mg/kg/injection, schedule: Q01DX009 (ip), vehicle: saline with Tween-80 108 % of control and 112 % of control | dose: 12.5 mg/kg/injection, schedule: Q01DX009 (ip), vehicle: saline with Tween-80 100 % of control and 103 % of control and 113 % of control
